Laboratory results: ChEMBL document CHEMBL1201862, “PubChem BioAssay data set” (2004)
Active and inactive are the calls of the source.

Tests used:
HEK293 [1] = assay: cells; details: Homo sapiens
Tumor necrosis factor = Tumor necrosis factor (Homo sapiens, UniProt P01375); assay: analog potency on TNFa NF-kB signaling – cell-based, revised, SAR follow-up (AID 2337); assay type: functional
[2] = molecular target: Nucleotide-binding oligomerization domain-containing protein 2 (Homo sapiens, UniProt Q9HC29); assay: PubChem AID 2334; assay type: functional
Sequence of Nucleotide-binding oligomerization domain-containing protein 2 (Q9HC29 whole entry, the tested form may be a part): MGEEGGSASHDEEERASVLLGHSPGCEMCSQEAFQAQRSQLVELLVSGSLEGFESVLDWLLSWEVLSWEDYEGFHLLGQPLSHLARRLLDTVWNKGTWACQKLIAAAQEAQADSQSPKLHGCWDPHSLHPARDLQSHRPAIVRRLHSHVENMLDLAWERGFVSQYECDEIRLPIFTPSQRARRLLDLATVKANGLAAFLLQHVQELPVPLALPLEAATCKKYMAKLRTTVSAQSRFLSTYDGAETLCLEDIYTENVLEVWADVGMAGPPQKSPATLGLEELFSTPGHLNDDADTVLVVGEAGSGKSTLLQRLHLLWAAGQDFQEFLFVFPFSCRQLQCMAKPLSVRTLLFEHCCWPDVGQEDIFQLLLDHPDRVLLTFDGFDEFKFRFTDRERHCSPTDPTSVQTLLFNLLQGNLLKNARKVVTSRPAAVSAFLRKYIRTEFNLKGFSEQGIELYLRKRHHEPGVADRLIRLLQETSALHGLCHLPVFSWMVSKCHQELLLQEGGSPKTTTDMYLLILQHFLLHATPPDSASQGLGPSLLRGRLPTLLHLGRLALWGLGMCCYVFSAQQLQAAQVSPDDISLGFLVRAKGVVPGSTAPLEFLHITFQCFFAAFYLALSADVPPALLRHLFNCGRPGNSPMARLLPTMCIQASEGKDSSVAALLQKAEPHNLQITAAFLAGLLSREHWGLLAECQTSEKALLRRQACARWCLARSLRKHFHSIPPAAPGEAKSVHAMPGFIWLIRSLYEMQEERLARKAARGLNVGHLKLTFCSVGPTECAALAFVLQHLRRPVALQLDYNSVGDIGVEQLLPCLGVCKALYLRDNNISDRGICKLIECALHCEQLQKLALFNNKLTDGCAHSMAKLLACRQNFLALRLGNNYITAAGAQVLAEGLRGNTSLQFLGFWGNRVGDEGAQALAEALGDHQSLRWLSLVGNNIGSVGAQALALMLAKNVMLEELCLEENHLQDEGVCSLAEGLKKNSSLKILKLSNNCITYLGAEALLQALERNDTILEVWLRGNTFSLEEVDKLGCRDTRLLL

HEK293 [3] = assay: inhibition of NOD1-driven NF-kB reporter – cell-based, luminescence, uHTS, primary screen (AID 1578); assay type: functional; details: Homo sapiens
HEK293 [4] = assay: cells; assay type: functional, cell-based; details: Homo sapiens
[5] = molecular target: T1, Nucleotide-binding oligomerization domain-containing protein 1 (Homo sapiens, UniProt Q9Y239); assay: blockers of NOD1 pathway activity – revised, SAR follow-up (AID 2333); assay type: functional
T1 sequence (Q9Y239 whole entry): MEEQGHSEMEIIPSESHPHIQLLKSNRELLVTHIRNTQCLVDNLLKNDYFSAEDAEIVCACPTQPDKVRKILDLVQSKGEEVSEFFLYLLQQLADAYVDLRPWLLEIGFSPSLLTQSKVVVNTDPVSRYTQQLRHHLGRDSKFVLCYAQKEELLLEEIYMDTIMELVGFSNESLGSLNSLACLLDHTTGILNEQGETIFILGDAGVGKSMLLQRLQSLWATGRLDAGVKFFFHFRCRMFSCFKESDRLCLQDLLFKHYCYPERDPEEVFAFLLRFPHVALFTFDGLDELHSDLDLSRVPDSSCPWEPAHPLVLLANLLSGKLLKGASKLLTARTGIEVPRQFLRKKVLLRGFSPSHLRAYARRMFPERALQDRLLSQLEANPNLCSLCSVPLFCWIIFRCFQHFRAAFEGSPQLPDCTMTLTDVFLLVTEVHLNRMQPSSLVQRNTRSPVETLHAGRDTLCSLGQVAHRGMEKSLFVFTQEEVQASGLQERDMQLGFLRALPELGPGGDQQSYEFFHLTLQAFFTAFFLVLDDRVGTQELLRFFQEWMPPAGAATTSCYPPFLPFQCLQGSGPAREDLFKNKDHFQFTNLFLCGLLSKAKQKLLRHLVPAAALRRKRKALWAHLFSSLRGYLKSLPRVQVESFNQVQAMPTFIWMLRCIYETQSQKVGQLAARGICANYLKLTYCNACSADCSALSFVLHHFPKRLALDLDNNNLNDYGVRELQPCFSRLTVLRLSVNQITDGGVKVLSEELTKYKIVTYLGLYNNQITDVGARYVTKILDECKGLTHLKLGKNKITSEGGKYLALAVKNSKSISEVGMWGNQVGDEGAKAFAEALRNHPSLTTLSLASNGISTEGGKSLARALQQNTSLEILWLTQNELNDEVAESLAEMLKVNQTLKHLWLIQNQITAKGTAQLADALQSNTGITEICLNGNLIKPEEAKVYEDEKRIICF

HEK293 [6] = assay: cells; assay type: functional, cell-based; details: Homo sapiens; remark: listed apart in the source
HEK293 [7] = assay: NOD2 signaling inhibitors in MDP-stimulated cells, cell-based, uHTS, luminescence (AID 2001); assay type: functional; details: Homo sapiens
[8] = molecular target: T2, Heat shock factor protein 1 (Mus musculus, UniProt P38532); assay: decrease of HSF1-responsive luciferase luminescence – cell-based, NIH3T3, dose retest, confirmation (AID 2382); assay type: functional;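 also: NIH3T3 fibroblasts with HSF1-driven luciferase reporter stressed by proteasome inhibitor MG132; luminescence from HSF1-driven luciferase expression after 8 hours of MG132 stress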
T2 sequence (P38532 whole entry): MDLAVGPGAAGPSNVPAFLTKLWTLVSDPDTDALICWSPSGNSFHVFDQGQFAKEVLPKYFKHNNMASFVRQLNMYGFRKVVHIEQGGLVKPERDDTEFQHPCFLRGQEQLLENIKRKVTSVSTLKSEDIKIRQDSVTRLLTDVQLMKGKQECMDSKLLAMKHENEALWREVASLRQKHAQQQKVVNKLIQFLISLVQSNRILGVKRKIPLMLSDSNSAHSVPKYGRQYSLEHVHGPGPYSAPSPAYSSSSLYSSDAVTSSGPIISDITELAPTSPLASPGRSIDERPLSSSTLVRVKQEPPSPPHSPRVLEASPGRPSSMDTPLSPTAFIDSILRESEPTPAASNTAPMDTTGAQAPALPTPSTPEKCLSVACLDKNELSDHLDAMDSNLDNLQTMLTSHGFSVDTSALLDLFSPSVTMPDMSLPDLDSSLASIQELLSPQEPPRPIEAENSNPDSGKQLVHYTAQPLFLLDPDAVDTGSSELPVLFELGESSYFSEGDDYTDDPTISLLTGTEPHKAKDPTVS

[9] = molecular target: T3, Alkaline phosphatase, tissue-nonspecific isozyme (Homo sapiens, UniProt P05186)
T3 sequence (P05186 whole entry): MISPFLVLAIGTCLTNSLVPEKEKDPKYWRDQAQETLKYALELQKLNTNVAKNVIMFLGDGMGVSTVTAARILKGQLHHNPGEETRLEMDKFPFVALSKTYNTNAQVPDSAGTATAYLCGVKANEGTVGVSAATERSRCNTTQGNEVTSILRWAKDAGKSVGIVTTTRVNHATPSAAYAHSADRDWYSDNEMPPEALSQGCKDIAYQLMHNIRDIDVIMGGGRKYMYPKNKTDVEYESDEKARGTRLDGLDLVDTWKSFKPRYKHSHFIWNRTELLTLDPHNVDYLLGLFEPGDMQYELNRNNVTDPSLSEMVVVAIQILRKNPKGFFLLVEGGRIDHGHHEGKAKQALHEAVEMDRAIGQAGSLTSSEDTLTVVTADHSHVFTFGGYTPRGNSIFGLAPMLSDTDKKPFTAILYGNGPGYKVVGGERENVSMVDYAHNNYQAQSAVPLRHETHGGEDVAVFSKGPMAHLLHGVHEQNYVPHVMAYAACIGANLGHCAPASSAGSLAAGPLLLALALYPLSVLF

Aminopeptidase N = Aminopeptidase N (Plasmodium falciparum FcB1/Columbia, UniProt O96935); assay: malaria alanyl aminopeptidase activity blockers – biochemical, fluorogenic H-Leu-NHMec substrate, 1536-well (AID 1445); set-up: species or system Plasmodium falciparum 3D7, 3D7
Sequence of Aminopeptidase N (O96935 whole entry): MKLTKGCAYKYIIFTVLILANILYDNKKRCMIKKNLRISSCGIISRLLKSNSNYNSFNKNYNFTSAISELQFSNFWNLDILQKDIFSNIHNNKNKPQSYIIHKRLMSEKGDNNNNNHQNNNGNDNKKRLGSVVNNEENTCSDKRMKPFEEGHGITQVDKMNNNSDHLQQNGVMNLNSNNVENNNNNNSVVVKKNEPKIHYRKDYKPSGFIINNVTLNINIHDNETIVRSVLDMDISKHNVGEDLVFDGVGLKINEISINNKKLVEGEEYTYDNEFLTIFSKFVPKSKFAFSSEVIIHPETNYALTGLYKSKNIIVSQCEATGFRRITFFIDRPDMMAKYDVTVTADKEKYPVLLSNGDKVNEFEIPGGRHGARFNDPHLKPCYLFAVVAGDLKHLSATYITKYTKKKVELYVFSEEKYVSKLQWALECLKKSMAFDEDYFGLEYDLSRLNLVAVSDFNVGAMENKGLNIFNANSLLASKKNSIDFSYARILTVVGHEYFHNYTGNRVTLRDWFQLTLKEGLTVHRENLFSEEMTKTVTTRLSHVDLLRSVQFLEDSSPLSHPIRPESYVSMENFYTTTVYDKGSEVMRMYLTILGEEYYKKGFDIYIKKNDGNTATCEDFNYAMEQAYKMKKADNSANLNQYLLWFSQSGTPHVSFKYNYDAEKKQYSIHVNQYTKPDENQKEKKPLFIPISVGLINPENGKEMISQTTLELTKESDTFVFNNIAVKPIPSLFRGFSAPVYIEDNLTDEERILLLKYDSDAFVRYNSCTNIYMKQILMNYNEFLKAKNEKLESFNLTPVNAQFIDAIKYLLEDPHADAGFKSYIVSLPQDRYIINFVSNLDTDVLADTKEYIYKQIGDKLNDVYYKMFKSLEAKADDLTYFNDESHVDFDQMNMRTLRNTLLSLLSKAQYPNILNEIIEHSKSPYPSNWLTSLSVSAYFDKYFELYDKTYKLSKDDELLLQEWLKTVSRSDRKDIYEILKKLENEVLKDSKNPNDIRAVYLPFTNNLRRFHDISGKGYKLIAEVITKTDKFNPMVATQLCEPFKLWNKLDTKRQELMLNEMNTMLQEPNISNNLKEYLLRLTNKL

[10] = test system: Streptococcus sp. 'group A'; assay: Streptococcus pyogenes SK(-)GAS viability under kanamycin – luminescence, BacTiterGlo, confirmation, counter-screen for streptokinase expression inhibitor project, dose response (AID 1900); assay type: functional, organism-based
[11] = molecular target: Polyadenylate-binding protein 1 (Homo sapiens, UniProt P11940); assay: blockers of PABP interaction with poly(A) – biochemical, fluorescence polarization, […] (AID 2014)
Sequence of Polyadenylate-binding protein 1 (P11940 whole entry): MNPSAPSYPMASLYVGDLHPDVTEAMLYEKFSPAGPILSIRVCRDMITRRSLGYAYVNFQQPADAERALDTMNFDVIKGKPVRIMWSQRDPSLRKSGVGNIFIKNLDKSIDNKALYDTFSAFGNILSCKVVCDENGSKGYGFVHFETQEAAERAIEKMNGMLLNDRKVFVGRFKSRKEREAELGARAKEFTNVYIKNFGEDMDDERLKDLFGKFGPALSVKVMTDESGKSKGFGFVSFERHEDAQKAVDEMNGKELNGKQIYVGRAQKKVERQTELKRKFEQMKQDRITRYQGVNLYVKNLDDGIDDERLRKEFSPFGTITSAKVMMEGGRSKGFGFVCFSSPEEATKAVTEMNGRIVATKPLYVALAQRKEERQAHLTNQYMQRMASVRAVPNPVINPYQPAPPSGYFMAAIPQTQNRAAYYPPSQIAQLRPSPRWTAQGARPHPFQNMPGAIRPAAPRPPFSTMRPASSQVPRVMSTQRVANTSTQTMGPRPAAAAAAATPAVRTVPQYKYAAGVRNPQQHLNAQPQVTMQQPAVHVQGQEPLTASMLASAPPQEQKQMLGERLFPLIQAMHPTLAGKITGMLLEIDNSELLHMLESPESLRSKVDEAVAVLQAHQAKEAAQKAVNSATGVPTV

Streptococcus = assay: GAS UMAA2166 growth inhibition – luminescence, BacTiterGlo, counter-screen for streptokinase expression inhibitor project, dose response (AID 1915); assay type: functional, organism-based;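 also: potency for reduction of bacterial viability or growth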
[12] = molecular target: Eukaryotic translation initiation factor 4H (Homo sapiens, UniProt Q15056); assay: eIF4H binding inhibition – biochemical, uHTS, fluorescence polarization, translation initiation inhibitor project, primary screen (AID 2012)
Estrogen receptor = molecular target: T4, Estrogen receptor (Homo sapiens, UniProt P03372); assay: ERα coactivator recruitment enhancers – biochemical, TR-FRET, ERα LBD, dose response (AID 737)
T4 sequence (P03372 whole entry): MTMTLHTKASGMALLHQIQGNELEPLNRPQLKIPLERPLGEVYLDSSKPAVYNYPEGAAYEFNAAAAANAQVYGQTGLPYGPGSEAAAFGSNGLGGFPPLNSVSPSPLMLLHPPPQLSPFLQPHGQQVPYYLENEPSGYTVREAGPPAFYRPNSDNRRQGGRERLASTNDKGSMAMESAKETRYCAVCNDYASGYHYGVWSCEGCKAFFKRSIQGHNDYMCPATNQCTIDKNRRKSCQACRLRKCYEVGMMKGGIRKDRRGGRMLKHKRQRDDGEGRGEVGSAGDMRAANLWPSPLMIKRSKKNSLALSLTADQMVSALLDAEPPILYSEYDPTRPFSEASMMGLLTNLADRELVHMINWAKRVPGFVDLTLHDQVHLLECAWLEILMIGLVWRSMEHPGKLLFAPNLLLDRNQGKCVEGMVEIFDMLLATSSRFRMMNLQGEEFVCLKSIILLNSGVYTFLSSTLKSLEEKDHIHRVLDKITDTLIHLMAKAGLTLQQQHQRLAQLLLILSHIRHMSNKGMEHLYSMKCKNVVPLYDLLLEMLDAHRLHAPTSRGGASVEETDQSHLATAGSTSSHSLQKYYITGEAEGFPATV

[13] = viability loss in THP-1 monocytes – THP-1 cells, cytotoxicity control for Vif-APOBEC3G degradation inhibitor project, dose response (AID 1117359); assay type: functional; details: THP-1
Protein Tat = molecular target: T5, Protein Tat (Human immunodeficiency virus type 1 group M subtype B (isolate HXB2)(HIV-1), UniProt P04608); assay type: functional;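 also: tat binding to TAR RNA read out by fluorescence polarization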
T5 sequence (P04608 whole entry): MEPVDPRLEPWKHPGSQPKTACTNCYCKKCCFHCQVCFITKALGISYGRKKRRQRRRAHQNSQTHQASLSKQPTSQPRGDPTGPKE

[14] = microbe, parasite or virus in culture; assay type: functional; details: Mycobacterium tuberculosis
[15] = A High Throughput Confirmatory Assay used to Identify Novel Compounds that Inhibit Mycobacterium Tuberculosis in the absence of Glycerol.; assay type: functional
Hexokinase HKDC1 = Hexokinase HKDC1 (Homo sapiens, UniProt Q2TB90); assay: inhibition of HKDC1 glucose phosphorylation – biochemical, W721R variant, dose response (AID 504729); assay type: functional
Sequence of Hexokinase HKDC1 (Q2TB90 whole entry): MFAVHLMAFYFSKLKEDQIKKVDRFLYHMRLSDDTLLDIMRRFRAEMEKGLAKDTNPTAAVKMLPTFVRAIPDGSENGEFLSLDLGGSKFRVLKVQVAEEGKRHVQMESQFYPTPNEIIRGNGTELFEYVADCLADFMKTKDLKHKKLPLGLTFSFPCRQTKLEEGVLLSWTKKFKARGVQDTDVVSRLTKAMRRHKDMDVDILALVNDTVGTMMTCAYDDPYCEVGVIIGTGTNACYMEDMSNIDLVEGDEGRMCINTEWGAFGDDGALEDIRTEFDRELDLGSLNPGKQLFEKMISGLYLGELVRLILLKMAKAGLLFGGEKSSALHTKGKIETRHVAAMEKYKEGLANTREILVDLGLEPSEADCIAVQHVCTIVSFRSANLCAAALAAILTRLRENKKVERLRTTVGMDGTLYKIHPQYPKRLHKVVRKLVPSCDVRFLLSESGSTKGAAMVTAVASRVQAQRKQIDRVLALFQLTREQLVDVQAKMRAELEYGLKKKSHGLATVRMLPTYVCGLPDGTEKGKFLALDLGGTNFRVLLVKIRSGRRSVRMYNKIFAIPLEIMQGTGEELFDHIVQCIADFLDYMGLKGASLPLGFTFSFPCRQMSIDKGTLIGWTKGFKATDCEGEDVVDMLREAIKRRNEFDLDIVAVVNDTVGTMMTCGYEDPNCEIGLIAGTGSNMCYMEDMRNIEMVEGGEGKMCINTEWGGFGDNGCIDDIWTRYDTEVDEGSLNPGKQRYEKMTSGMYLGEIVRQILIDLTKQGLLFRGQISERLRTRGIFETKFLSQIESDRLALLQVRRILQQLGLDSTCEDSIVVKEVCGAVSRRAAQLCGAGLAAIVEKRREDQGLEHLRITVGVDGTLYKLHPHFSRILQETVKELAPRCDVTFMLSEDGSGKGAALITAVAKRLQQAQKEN

Genome polyprotein = Genome polyprotein (dengue virus type 2, UniProt P29990); assay: flavivirus cap methylation enzyme inhibition – biochemical, confirmation dose response, primary screen (AID 588689); assay type: functional
Sequence of Genome polyprotein (P29990 2492-3391 limits assumed): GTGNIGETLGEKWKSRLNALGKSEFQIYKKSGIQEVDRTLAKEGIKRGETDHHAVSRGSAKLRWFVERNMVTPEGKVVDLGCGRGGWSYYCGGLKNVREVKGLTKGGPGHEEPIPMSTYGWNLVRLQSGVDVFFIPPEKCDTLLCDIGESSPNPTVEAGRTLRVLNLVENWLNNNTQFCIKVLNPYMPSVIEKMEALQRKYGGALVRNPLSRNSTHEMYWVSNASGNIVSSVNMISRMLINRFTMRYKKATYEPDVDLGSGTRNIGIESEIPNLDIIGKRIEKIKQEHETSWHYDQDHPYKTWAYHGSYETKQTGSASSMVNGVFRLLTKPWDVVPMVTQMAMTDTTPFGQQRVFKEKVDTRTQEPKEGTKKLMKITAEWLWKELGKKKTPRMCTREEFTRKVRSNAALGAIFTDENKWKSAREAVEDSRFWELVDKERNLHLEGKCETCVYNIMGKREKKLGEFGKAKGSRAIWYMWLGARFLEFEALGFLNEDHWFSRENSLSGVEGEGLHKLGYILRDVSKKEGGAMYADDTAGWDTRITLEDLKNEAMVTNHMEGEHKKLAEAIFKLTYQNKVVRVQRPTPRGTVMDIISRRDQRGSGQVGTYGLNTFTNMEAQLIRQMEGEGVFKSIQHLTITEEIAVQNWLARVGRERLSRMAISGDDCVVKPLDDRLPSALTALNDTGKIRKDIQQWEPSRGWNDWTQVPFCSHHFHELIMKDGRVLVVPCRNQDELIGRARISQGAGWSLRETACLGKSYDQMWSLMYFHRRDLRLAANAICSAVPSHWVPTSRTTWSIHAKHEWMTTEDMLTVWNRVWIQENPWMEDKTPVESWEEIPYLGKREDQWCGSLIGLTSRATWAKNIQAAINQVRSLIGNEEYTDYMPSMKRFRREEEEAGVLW

Vero = assay: viability of Vero cells under compound – cytotoxicity control for flavivirus capping enzyme inhibitors (AID 588742); assay type: functional; details: Chlorocebus sabaeus
[16] = molecular target: T6, Corticotropin-releasing factor receptor 2/Corticotropin-releasing factor-binding protein (Homo sapiens, UniProt P24387+Q13324); assay: activators of CRF receptor 2 with binding protein – uHTS hits, confirmation (AID 602473); assay type: functional; details: read-out: EC50_Mean
T6 sequence (Q13324 whole entry): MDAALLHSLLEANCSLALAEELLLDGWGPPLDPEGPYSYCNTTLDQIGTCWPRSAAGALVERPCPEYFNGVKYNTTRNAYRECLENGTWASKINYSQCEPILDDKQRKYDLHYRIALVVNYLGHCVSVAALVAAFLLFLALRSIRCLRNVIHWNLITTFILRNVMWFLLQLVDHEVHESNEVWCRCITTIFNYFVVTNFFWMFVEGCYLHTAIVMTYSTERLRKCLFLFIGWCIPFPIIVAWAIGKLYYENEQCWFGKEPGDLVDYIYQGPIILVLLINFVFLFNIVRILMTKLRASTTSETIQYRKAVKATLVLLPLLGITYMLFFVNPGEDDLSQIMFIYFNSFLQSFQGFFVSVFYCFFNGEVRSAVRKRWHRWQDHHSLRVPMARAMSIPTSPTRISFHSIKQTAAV
T6 sequence (P24387 whole entry): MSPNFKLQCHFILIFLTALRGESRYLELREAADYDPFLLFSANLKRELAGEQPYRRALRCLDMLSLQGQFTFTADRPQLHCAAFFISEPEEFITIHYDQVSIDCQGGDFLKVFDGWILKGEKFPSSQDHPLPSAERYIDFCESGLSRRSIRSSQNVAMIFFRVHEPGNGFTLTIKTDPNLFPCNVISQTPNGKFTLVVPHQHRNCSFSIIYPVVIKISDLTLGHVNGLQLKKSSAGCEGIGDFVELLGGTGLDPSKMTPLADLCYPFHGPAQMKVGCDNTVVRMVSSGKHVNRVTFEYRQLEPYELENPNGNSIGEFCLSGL

Sequence of Tumor necrosis factor (P01375 whole entry, the tested form may be a part): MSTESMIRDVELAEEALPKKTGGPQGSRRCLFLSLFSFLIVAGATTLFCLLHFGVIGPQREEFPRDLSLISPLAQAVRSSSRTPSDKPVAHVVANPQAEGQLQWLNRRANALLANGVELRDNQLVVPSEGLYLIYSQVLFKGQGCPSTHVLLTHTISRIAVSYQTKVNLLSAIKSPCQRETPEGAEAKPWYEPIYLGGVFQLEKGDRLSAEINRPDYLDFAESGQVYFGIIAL

In the case of `C=CCN(c1ccccc1OC)S(=O)(=O)c1ccc(Cl)c(C(=O)Nc2ccc(N3CCOCC3)cc2)c1`, the IC50 (HEK293 [1]) is reported as > 20 µM (inactive), the IC50 (Tumor necrosis factor) is reported as 13.2 µM (active) and the IC50 [2] is reported as 10.4 µM (active). The EC50 (HEK293 [3]) was 12 µM (active), the IC50 (HEK293 [4]) was > 20 µM (inactive) and the IC50 [5] was 14 µM (active). The IC50 (HEK293 [6]) was > 20 µM (inactive) and the IC50 (HEK293 [7]) was 14.4 µM (inactive).

With `C=CCSC1=Nc2sccc2C2=NC(=O)CN12` the EC50 [8] was 18.5 µM (active) and the EC50 [9] was > 100 µM (not active).

With `COc1ccccc1-c1nnc(SC/C(O)=C(\C#N)c2nc3ccccc3[nH]2)n1C1CCCCC1` the IC50 (Aminopeptidase N) was 52.2 µM (active).

With `O=C(c1cnc2n(c1=O)CCS2)N(C1CCCCC1)C1CCCCC1` the IC50 (Aminopeptidase N) was 149 µM (active).

For `CC(=O)NC(=S)Nc1ccc(NC(=S)NC(=O)/C=C/c2ccco2)cc1`, the EC50 [10] was 2.69 µM (active), the IC50 [11] was > 100 µM (inactive) and the EC50 (Streptococcus) was 5.33 µM (active). For the same compound, the IC50 [12] was 36.7 µM (active).

With `Cc1ccccc1N(C)S(=O)(=O)c1nnc(NC(=O)c2ccco2)s1` the IC50 [11] was 67.8 µM (active) and the IC50 [12] was 25.9 µM (active).

In the case of `O=C(Nc1nc2ccccc2n1Cc1ccc(Cl)cc1)c1cccs1`, the IC50 (HEK293 [1]) is reported as > 20 µM (inactive), the IC50 (Tumor necrosis factor) is reported as > 20 µM (inactive) and the IC50 [2] is reported as > 20 µM (inactive). For the same compound, the IC50 [5] was > 20 µM (inactive).

In the case of `O=C(Nc1ccccc1-c1ccccc1)NC1CC2CCCC(C1)N2CCc1ccccc1` (configuration not stated), the EC50 [9] is reported as 51.2 µM (not active).

For `O=C(Cn1c(=O)oc2cc(S(=O)(=O)N3CCCCCC3)ccc21)NC1CCCCC1`, the EC50 (Estrogen receptor) was 12.9 µM (not active).

In the case of `Oc1ccc2ccccc2c1C1Nc2cccc3cccc(c23)N1`, the CC50 [13] is reported as > 40 µM (active), the IC50 (Protein Tat) is reported as 41.7 µM (inconclusive) and the CC50 [14] is reported as > 40 µM (active). For the same compound, the IC50 [15] was > 100 µM (active).

For `Cc1ccc(-n2c3nc(=O)[nH]c(=O)c-3cc3cc([N+](=O)[O-])ccc32)cc1C`, the IC50 (Hexokinase HKDC1) was 6.47 µM (active), the IC50 (Genome polyprotein) was 65.1 µM (active) and the CC50 (Vero) was 29.7 µM (active). For the same compound, the EC50 [16] was 10 µM (active).
